# Assay results taken from patent US20130338106A1, “COMPOUNDS INHIBITING LEUCINE-RICH REPEAT KINASE ENZYME ACTIVITY” (priority 2011, published 2013).
# Molecular target: T1, LRRK2 G2019S mutant kinase (Homo sapiens, UniProt Q5S007, G2019S)
# T1 construct: GST; purchased Invitrogen PV4882
# Assay: LRRK2 G2019S LanthaScreen TR-FRET kinase assay
# Format: biochemical
# Conditions: LRRK2 G2019S GST-tagged protein, 100 μM ATP, LRRKtide substrate; read-out: IC50 (potency)
# Procedure: Activity of compounds against LRRK2 G2019S mutant kinase function was tested in a LANTHAScreen® assay as follows: Compounds were diluted in 100% DMSO to the desired test concentrations in white, low-volume 384-well plates (PerkinElmer ProxiPlate® PN: 6008280). TR-FRET kinase reactions (10 μL) were performed with 75 nM Fluorescein-ERM (LRRKtide, Invitrogen, PN:PV4901) substrate in a final assay buffer containing 100 μM ATP and 2 mM DTT diluted in commercially available Kinase Buffer S (Invitrogen PN: PV5213). The final solvent concentration in the assay was 1% DMSO. Reactions were initiated with the addition of 10 ng/well of LRRK2 02019S, GST-tagged protein (Invitrogen PN: PV4882). After incubation of the foil sealed reaction plates at room temperature with low speed mixing for 1 hour, the kinase reaction was stopped and the amount of substrate phosphorylation was detected by addition of 10 μL of 10 mM EDTA and 2 nM Tb-anti-pERM (pLRRKtide antibody, Invitrogen, PN: PV4898) antibody in TR-FRET dilution buffer (Invitrogen PN: PV3574). After a 30 minute incubation at room temperature with low speed mixing, foil seals were removed and measurements were obtained on a PerkinElmer EnVision with excitation 340 nm, emission 520 nm (channel 1): 495 nm (channel 2) settings. Generation of raw data and workup of data to derive the IC50 (potency) and maximal inhibition at concentrations tested were performed using Merck's Assay Data Analyzer (ADA) software.
# T1 sequence (Q5S007 whole entry G2019S): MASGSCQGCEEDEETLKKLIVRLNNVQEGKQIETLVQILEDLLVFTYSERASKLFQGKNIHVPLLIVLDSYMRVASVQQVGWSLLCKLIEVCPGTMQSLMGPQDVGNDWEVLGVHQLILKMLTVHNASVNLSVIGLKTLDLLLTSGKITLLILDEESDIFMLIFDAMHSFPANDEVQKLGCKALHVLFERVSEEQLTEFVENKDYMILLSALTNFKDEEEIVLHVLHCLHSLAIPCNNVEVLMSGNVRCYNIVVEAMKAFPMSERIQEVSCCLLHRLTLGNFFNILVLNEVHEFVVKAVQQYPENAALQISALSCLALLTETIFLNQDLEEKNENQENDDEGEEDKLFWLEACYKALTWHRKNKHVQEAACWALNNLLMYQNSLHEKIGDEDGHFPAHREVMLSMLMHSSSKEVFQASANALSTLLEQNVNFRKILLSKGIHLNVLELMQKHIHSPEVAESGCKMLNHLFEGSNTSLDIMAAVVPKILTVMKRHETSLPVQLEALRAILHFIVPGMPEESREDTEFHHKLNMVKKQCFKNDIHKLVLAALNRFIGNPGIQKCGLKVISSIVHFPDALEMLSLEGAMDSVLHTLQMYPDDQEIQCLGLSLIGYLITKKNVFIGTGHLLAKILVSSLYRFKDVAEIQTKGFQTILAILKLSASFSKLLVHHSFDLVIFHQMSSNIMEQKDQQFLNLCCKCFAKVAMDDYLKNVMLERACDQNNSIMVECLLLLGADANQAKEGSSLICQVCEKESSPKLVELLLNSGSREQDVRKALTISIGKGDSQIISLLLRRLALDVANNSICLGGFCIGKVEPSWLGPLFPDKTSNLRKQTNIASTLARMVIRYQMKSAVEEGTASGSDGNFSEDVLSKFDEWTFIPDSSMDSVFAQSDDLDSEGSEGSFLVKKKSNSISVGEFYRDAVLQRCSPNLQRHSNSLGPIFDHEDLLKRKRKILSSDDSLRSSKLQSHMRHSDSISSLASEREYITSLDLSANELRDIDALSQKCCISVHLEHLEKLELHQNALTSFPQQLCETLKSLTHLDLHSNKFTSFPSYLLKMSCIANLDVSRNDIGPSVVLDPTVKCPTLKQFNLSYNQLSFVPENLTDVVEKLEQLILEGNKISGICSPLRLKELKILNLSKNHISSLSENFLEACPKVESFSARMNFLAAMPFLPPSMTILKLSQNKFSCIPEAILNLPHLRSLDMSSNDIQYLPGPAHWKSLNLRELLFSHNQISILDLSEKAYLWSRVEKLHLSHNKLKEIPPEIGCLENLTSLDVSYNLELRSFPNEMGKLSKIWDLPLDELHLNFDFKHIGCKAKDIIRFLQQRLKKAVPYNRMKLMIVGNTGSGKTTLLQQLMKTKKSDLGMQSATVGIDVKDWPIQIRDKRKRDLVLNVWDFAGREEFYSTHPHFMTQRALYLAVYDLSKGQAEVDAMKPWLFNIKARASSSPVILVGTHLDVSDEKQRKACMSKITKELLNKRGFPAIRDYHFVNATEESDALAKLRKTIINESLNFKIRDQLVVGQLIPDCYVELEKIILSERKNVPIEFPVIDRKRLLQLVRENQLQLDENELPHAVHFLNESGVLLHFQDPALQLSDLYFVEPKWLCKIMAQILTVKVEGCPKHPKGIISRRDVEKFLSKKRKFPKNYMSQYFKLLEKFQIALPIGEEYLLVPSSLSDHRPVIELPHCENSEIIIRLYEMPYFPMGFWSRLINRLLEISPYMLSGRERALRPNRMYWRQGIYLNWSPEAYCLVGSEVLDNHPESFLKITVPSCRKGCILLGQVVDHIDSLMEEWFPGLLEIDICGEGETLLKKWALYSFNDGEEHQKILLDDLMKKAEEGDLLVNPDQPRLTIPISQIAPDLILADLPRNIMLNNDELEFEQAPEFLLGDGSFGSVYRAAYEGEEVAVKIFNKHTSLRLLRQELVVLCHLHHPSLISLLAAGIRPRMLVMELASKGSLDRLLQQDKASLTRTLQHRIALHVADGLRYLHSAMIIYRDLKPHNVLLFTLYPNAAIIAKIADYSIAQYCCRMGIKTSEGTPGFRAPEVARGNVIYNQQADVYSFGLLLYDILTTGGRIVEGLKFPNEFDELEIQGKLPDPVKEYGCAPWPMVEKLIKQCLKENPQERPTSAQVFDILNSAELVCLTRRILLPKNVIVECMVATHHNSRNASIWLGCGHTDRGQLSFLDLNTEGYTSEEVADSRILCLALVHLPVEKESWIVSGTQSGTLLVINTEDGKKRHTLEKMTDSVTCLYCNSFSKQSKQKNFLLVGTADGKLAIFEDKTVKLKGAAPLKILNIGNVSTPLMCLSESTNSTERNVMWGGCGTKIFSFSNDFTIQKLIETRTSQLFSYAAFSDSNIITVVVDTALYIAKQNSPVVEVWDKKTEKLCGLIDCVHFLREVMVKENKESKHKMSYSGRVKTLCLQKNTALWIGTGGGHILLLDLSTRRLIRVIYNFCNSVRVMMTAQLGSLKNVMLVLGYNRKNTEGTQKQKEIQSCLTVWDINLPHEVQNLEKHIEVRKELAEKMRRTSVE
row,Compound,IC50
1,"CS(=O)(=O)c1sc(-c2cc[nH]n2)c2c1C(=O)CCC2 [Example 2, 3-(Methylsulfonyl)-1-(1H-pyrazol-3-yl)-6,7-dihydro-2-benzothiophen-4(5H)-one]",3500 nM
2,"O=C1CCCc2c(-c3cc[nH]n3)sc(SC3CCCC3)c21 [Example 3, 3-(Cyclopentylsulfanyl)-1-(1H-pyrazol-3-yl)-6,7-dihydro-2-benzothiophen-4(5H)-one]",430 nM
3,"O=C1CCCc2c(-c3cc[nH]n3)sc(NC3CCCC3)c21 [Example 4, 3-(Cyclopentylamino)-1-(1H-pyrazol-3-yl)-6,7-dihydro-2-benzothiophen-4(5H)-one]",160 nM
4,"CSc1sc(-c2cc[nH]n2)c2c1C(=O)CC(C)(C)C2 [Example 5, 6,6-Dimethyl-3-(methylsulfanyl)-1-(1H-pyrazol-3-yl)-6,7-dihydro-2-benzothiophen-4(5H)-one]",230 nM
5,"CC1(C)CC(=O)c2c(S(C)(=O)=O)sc(-c3cc[nH]n3)c2C1 [Example 6, 6,6-Dimethyl-3-(methylsulfonyl)-1-(1H-pyrazol-3-yl)-6,7-dihydro-2-benzothiophen-4(5H)-one]",2800 nM
6,"CCSc1sc(-c2cc[nH]n2)c2c1C(=O)CC(C)(C)C2 [Example 8, 3-(Ethylsulfanyl)-6,6-dimethyl-1-(1H-pyrazol-3-yl)-6,7-dihydro-2-benzothiophen-4(5H)-one]",180 nM
7,"CC(C)Sc1sc(-c2cc[nH]n2)c2c1C(=O)CC(C)(C)C2 [Example 9, 6,6-Dimethyl-3-(propan-2-ylsulfanyl)-1-(1H-pyrazol-3-yl)-6,7-dihydro-2-benzothiophen-4(5H)-one]",140 nM
8,"CC1(C)CC(=O)c2c(SCCO)sc(-c3cc[nH]n3)c2C1 [Example 10, 3-[(2-Hydroxyethyl)sulfanyl]-6,6-dimethyl-1-(1H-pyrazol-3-yl)-6,7-dihydro-2-benzothiophen-4(5H)-one]",240 nM
9,"CC1(C)CC(=O)c2c(SCCCO)sc(-c3cc[nH]n3)c2C1 [Example 11, 3-[(3-Hydroxypropyl)sulfanyl]-6,6-dimethyl-1-(1H-pyrazol-3-yl)-6,7-dihydro-2-benzothiophen-4(5H)-one]",200 nM
10,"COCCSc1sc(-c2cc[nH]n2)c2c1C(=O)CC(C)(C)C2 [Example 12, 3-[(2-Methoxyethyl)sulfanyl]-6,6-dimethyl-1-(1H-pyrrazol-3-yl)-6,7-dihydro-2-henzothiophen-4(5H)-one]",290 nM
11,"CN(C)CCSc1sc(-c2cc[nH]n2)c2c1C(=O)CC(C)(C)C2 [Example 13, 3-{[2-(Dimethylamino)ethyl]sulfanyl}-6,6-dimethyl-1-(1H-pyrazol-3-yl)-6,7-dihydro-2-benzothiophen-4(5H)-one]",520 nM
12,"CC1(C)CC(=O)c2c(SCc3ccccc3)sc(-c3cc[nH]n3)c2C1 [Example 14, 3-(Benzylsulfanyl)-6,6-dimethyl-1-(1H-pyrazol-3-yl)-6,7-dihydro-2-benzothiophen-4(5H)-one]",860 nM
13,"CC1(C)CC(=O)c2c(SCc3ccco3)sc(-c3cc[nH]n3)c2C1 [Example 15, 3-[(Furan-2-ylmethyl)sulfanyl]-6,6-dimethyl-1-(1H-pyrazol-3-yl)-6,7-dihydro-2-benzothiophen-4(5H)-one]",450 nM
14,"CC(O)CSc1sc(-c2cc[nH]n2)c2c1C(=O)CC(C)(C)C2 (centres unmarked) [Example 16, 3-[(2-Hydroxypropyl)sulfanyl]-6,6-dimethyl-1-(1H-pyrazol-3-yl)-6,7-dihydro-2-benzothiophen-4(5H)-one]",220 nM
15,"CC1(C)CC(=O)c2c(SCCc3ccccc3)sc(-c3cc[nH]n3)c2C1 [Example 17, 6,6-Dimethyl-3-[(2-phenylethyl)sulfanyl]-1-(1H-pyrazol-3-yl)-6,7-dihydro-2-benzothiophen-4(5H)-one]",450 nM
16,"CCC(C)CSc1sc(-c2cc[nH]n2)c2c1C(=O)CC(C)(C)C2 (centres unmarked) [Example 18, 6,6-Dimethyl-3-[(2-methylbutyl)sulfanyl]-1-(1H-pyrazol-3-yl)-6,7-dihydro-2-benzothiophen-4(5H)-one]",220 nM
17,"CC1(C)CC(=O)c2c(SCCCCCCO)sc(-c3cc[nH]n3)c2C1 [Example 19, 3-[(6-Hydroxyhexyl)sulfanyl]-6,6-dimethyl-1-(1H-pyrazol-3-yl)-6,7-dihydro-2-benzothiophen-4(5H)-one]",60 nM
18,"CC1(C)CC(=O)c2c(SCCCCCCN=[N+]=[N-])sc(-c3cc[nH]n3)c2C1 [Example 20, 3-[(6-Azidohexyl)sulfanyl]-6,6-dimethyl-1-(1H-pyrazol-3-yl)-6,7-dihydro-2-benzothiophen-4(5H)-one]",490 nM

row,Compound,IC50
1,"CC1(C)CC(=O)c2c(SCCCN=[N+]=[N-])sc(-c3cc[nH]n3)c2C1 [Example 21, 3-[(3-Azidopropyl)sulfanyl]-6,6-dimethyl-1-(1H-pyrazol-3-yl)-6,7-dihydro-2-benzothiophen-4(5H)-one]",200 nM
2,"CC1(C)CC(=O)c2c(SCC3CC3)sc(-c3cc[nH]n3)c2C1 [Example 22, 3-[(Cyclopropylmethyl)sulfanyl]-6,6-dimethyl-1-(1H-pyrazol-3-yl)-6,7-dihydro-2-benzothiophen-4(5H)-one]",130 nM
3,"CC(=O)NCCCCCCSc1sc(-c2cc[nH]n2)c2c1C(=O)CC(C)(C)C2 [Example 23, N-(6-{[5,5-Dimethyl-7-oxo-3-(1H-pyrazol-3-yl)-4,5,6,7-tetrahydro-2-benzothiophen-1-yl]sulfanyl}hexyl)acetamide]",180 nM
4,"CC1(C)CC(=O)c2c(SCCCCCCN)sc(-c3cc[nH]n3)c2C1 [Example 24, 3-[(6-Aminohexyl)sulfanyl]-6,6-dimethyl-1-(1H-pyrazol-3-yl)-6,7-dihydro-2-benzothiophen-4(5H)-one]",70 nM
5,"CC1(C)CC(=O)c2c(SCC(O)CO)sc(-c3cc[nH]n3)c2C1 (centres unmarked) [Example 25, 3-[(2,3-Dihydroxypropyl)sulfanyl]-6,6-dimethyl-1-(1H-pyrazol-3-yl)-6,7-dihydro-2-benzothiophen-4(5H)-one]",740 nM
6,"CC(C)CSc1sc(-c2cc[nH]n2)c2c1C(=O)CC(C)(C)C2 [Example 26, 6,6-Dimethyl-3-[(2-methylpropyl)sulfanyl]-1-(1H-pyrazol-3-yl)-6,7-dihydro-2-benzothiophen-4(5H)-one]",120 nM
7,"CCCCSc1sc(-c2cc[nH]n2)c2c1C(=O)CC(C)(C)C2 [Example 27, 3-(Butylsulfanyl)-6,6-dimethyl-1-(1H-pyrazol-3-yl)-6,7-dihydro-2-benzothiophen-4(5H)-one]",140 nM
8,"CCCSc1sc(-c2cc[nH]n2)c2c1C(=O)CC(C)(C)C2 [Example 28, 6,6-Dimethyl-3-(propylsulfanyl)-1-(1H-pyrazol-3-yl)-6,7-dihydro-2-benzothiophen-4(5H)-one]",160 nM
9,"CC1(C)CC(=O)c2c(SCC(F)(F)F)sc(-c3cc[nH]n3)c2C1 [Example 29, 6,6-Dimethyl-1-(1H-pyrazol-3-yl)-3-[(2,2,2-trifluoroethyl)sulfanyl]-6,7-dihydro-2-benzothiophen-4(5H)-one]",250 nM
10,"CCC(C)Sc1sc(-c2cc[nH]n2)c2c1C(=O)CC(C)(C)C2 (centres unmarked) [Example 30, 3-(Butan-2-ylsulfanyl)-6,6-dimethyl-1-(1H-pyrazol-3-yl)-6,7-dihydro-2-benzothiophen-4(5H)-one]",180 nM
11,"CC1(C)CC(=O)c2c(SCC[Si](C)(C)C)sc(-c3cc[nH]n3)c2C1 [Example 31, 6,6-Dimethyl-1-(1H-pyrazol-3-yl)-3-{[2-(trimethylsilyl)ethyl]sulfanyl}-6,7-dihydro-2-benzothiophen-4(5H)-one]",1900 nM
12,"Cc1nnc(Sc2sc(-c3cc[nH]n3)c3c2C(=O)CC(C)(C)C3)s1 [Example 32, 6,6-Dimethyl-3-[(5-methyl-1,3,4-thiadiazol-2-yl)sulfanyl]-1-(1H-pyrazol-3-yl)-6,7-dihydro-2-benzothiophen-4(5H)-one]",4000 nM
13,"CC1(C)CC(=O)c2c(SCCCCl)sc(-c3cc[nH]n3)c2C1 [Example 33, 3-[(3-Chloropropyl)sulfanyl]-6,6-dimethyl-1-(1H-pyrazol-3-yl)-6,7-dihydro-2-benzothiophen-4(5H)-one]",120 nM
14,"CCCCCCSc1sc(-c2cc[nH]n2)c2c1C(=O)CC(C)(C)C2 [Example 34, 3-(Hexylsulfanyl)-6,6-dimethyl-1-(1H-pyrazol-3-yl)-6,7-dihydro-2-benzothiophen-4(5H)-one]",1300 nM
15,"CCCNc1sc(-c2cc[nH]n2)c2c1C(=O)CC(C)(C)C2 [Example 35, 6,6-Dimethyl-3-(propylamino)-1-(1H-pyrazol-3-yl)-6,7-dihydro-2-benzothiophen-4(5H)-one]",150 nM
16,"CNc1sc(-c2cc[nH]n2)c2c1C(=O)CC(C)(C)C2 [Example 36, 6,6-Dimethyl-3-(methylamino)-1-(1H-pyrazol-3-yl)-6,7-dihydro-2-benzothiophen-4(5H)-one]",760 nM
17,"CC(C)Nc1sc(-c2cc[nH]n2)c2c1C(=O)CC(C)(C)C2 [Example 37, 6,6-Dimethyl-3-(propan-2-ylamino)-1-(1H-pyrazol-3-yl)-6,7-dihydro-2-benzothiophen-4(5H)-one]",180 nM
